The values that follow come from PubChem BioAssay AID2060503 (Molecular Pharmacology Branch, DTP, NCI, 2025).

What is called IC50 is the concentration needed to halve the response being measured. By viability, T/C is commonly meant the result in the treated group divided by that in the control group, in per cent.

The experiment relates to 817829-284-R-J1-PDC complex spheroids, viability. Briefly: Anticancer human tumor 817829-284-R-J1-PDC patient-derived colon adenocarcinoma cell line growth inhibition [GQUAD]. Conditions: for viability, T/C: stronger effect = lower value. The source says: DNA G-quadruplex Stabilizer Agents in Combinations in Complex Spheroids
A high-throughput screen of multi-cell type tumor spheroids was designed to identify active combinations of DNA G-quadruplex stabilizer agents and targeted small molecules. Complex spheroids include a stromal component modeled by human endothelial cells (HUVEC) and fibroblasts modeled by human mesenchymal stem cells (MSCs). The concentration ranges selected for each drug and investigational agent were based upon clinically achievable concentrations if the clinical Cmax of the agent was known.
Compounds. The drugs and investigational agents: pidnarulex (CX-5461; NSC782164), APTO-253 (NSC789042), BRACO-19 (NSC847499), peposertib (NSC802822), ceralasertib (NSC780249), elimusertib (NSC800525), camonsertib (NSC841442), AZD-1390 (NSC803789), olaparib (NSC753686), talazoparib (NSC767125), ART-558 (NSC835418), sotorasib (NSC818433), MRTX-1133 (NSC836407), SN-38 (NSC673596), topotecan (NSC609699), etoposide (NSC141540), doxorubicin (NSC123127), gemcitabine (NSC613327), 5-fluorouracil (NSC19893), paclitaxel (NSC125973), vemurafenib (NSC761431), panobinostat (NSC761190), R-306465 (JNJ-16241199; NSC773264), adavosertib (NSC754352), TP-3654 (NSC805149), carboplatin (NSC241240), KSQ-4279 (NSC840948), and staurosporine (NSC755774) were obtained from the National Cancer Institute (NCI) Developmental Therapeutics Program Chemical Repository (34). The FDA-approved anticancer drug set is available from the NCI Developmental Therapeutics Program. […] The stock solutions were prepared in dimethyl sulfoxide (DMSO, Sigma-Aldrich, St. Louis, MO, cat. D2650) at 800-fold the tested concentration and stored at -70 degrees C prior to their use. All drugs and investigational agents were tested over a range starting from a high concentration at or near the clinical Cmax and decreasing in half-log increments. If the clinical Cmax for an agent had not been determined, the highest concentration tested was 10 microM.
2.3 Cell Culture. All cells were maintained in an incubator at 37 degrees C and 5% CO2 with 95% humidity. The PDC lines were cultured according to standard operating procedures established by the NCI PDMR. All PDCs were thawed and cultured in Matrigel-coated flasks prepared with a working solution of 1X Ham's F-12 nutrient mix, without supplementation (Invitrogen, cat. 11765054), 100 U/mL penicillin-streptomycin (Invitrogen, cat. 15140122), and 2.5% Matrigel (Corning Inc., cat. 354248) for the first three passages. The 857933-349-R-J2-PDC line was cultured in 6C/Colon 1B media, which includes advanced DMEM/F-12 (Thermo Fisher Scientific, cat. 12634028), 10 mM HEPES (Thermo Fisher Scientific, cat. 15630080), 1X GlutaMAX supplement (Thermo Fisher Scientific, cat. 35050061), 0.1 mg/mL primocin (InvivoGen, cat. ant-pm-2), 10% defined fetal bovine serum, heat inactivated (HyClone Laboratories Inc., cat. SH30070.03HI), 50% L-WRN conditioned media (ATCC, cat. CRL-3276), 1.25 mM N-Acetyl-L-cysteine (Sigma-Aldrich, cat. A9165), 10 mM nicotinamide (Sigma-Aldrich, cat. N0636), 1X B-27 supplement (Thermo Fisher Scientific, cat. 17504044), 1X N-2 supplement (Thermo Fisher Scientific, cat. 17502048), 10 microM Y-27632 dihydrochloride (Tocris Bioscience, cat. 1254), and 50 ng/mL human EGF recombinant protein (Thermo Fisher Scientific, cat. PHG0311). The 485176-168-R4-J1-PDC line was cultured in Panc media, which includes all 6C/Colon 1B media components plus 100 ng/mL human FGF-10 (Thermo Fisher Scientific, cat. 100-26), 500 nM SB-431542 (Selleckchem, cat. S1067), and gastrin (Tocris, cat. 3006).
[…]

SMILES strings stand for the structures. Values joined by “and” are separate entries in the source; they are usually repeats but may differ in a detail not shown here. Identical values can stand only once.
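Further: spheroids exposed to agents for 7 days before readout.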
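Wherever viability, T/C is given: percent viability relative to DMSO vehicle control taken as 100%.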

Take `COc1ncnc(C2CC2)c1-c1ncc2cnn(Cc3ccc(-c4nc(C(F)(F)F)cn4C(C)C)cc3)c2n1` + Cc1[nH]c2ccc(F)cc2c1-c1nc2c3cccnc3c3ncccc3c2[nH]1: the IC50 by setting is: (curve of first compound, second compound 0.0316 µM) over 10 µM; (curve of first compound, second compound 0.1 µM) over 10 µM; (curve of first compound, second compound 0.316 µM) over 10 µM; (curve of first compound, second compound 1 µM) over 10 µM; (curve of first compound, second compound 3.16 µM) over 10 µM; (curve of first compound, second compound 10 µM) 0.032 µM. The viability, T/C is, setting by setting: (second compound 0.0316 µM, first compound 0.0316 µM) 99.1%; (second compound 0.0316 µM, first compound 0.1 µM) 113%; (second compound 0.0316 µM, first compound 0.316 µM) 101%; (second compound 0.0316 µM, first compound 1 µM) 97.9%; (second compound 0.0316 µM, first compound 3.16 µM) 113%; (second compound 0.0316 µM, first compound 10 µM) 109%. Further, the viability, T/C runs as follows: (second compound 0.1 µM, first compound 0.0316 µM) 96.6%; (second compound 0.1 µM, first compound 0.1 µM) 115%; (second compound 0.1 µM, first compound 0.316 µM) 99.8%; (second compound 0.1 µM, first compound 1 µM) 111%; (second compound 0.1 µM, first compound 3.16 µM) 108%; (second compound 0.1 µM, first compound 10 µM) 115%. The viability, T/C reads like this: (second compound 0.316 µM, first compound 0.0316 µM) 105%; (second compound 0.316 µM, first compound 0.1 µM) 119%; (second compound 0.316 µM, first compound 0.316 µM) 101%; (second compound 0.316 µM, first compound 1 µM) 94.2%; (second compound 0.316 µM, first compound 3.16 µM) 110%; (second compound 0.316 µM, first compound 10 µM) 129%. Moreover, the viability, T/C was 118% (second compound 1 µM, first compound 0.0316 µM); 105% (second compound 1 µM, first compound 0.1 µM); 117% (second compound 1 µM, first compound 0.316 µM); 98.9% (second compound 1 µM, first compound 1 µM); 108% (second compound 1 µM, first compound 3.16 µM); 118% (second compound 1 µM, first compound 10 µM). Besides, the viability, T/C is 63.5% (second compound 3.16 µM, first compound 0.0316 µM); 73.5% (second compound 3.16 µM, first compound 0.1 µM); 56.4% (second compound 3.16 µM, first compound 0.316 µM); 79.9% (second compound 3.16 µM, first compound 1 µM); 84.8% (second compound 3.16 µM, first compound 3.16 µM); 68.7% (second compound 3.16 µM, first compound 10 µM). Besides, the viability, T/C runs as follows: (second compound 10 µM, first compound 0.0316 µM) 50.2%; (second compound 10 µM, first compound 0.1 µM) 26.4%; (second compound 10 µM, first compound 0.316 µM) 27.8%; (second compound 10 µM, first compound 1 µM) 40.9%; (second compound 10 µM, first compound 3.16 µM) 15.1%; (second compound 10 µM, first compound 10 µM) 18.8%.

Take `Cn1ncnc1[C@H]1c2n[nH]c(=O)c3cc(F)cc(c23)N[C@@H]1c1ccc(F)cc1`: the viability, T/C is 111% and 90.3% and 92.1% (compound 0.000999 µM); 86.5% and 83.5% and 92.8% (compound 0.00316 µM); 106% and 112% and 101% (compound 0.00999 µM); 91.3% and 82.8% and 82% (compound 0.0316 µM); 83.5% and 82.1% and 84% (compound 0.0999 µM); 72.2% and 75.2% and 66.5% (compound 0.316 µM). The IC50 (curve of compound) is over 0.316 µM.

Regarding `CC1COCCN1c1cc(-c2ccnn2C)c2ccnc(-c3ccn[nH]3)c2n1` (stereo not given), the viability, T/C runs as follows: (compound 0.0316 µM) 67.1% and 49.9% and 63.2%; (compound 0.1 µM) 15.9% and 20.1% and 19.1%; (compound 0.316 µM) 8.87% and 9.11% and 9.13%; (compound 1 µM) 5.41% and 7.67% and 7.19%; (compound 3.16 µM) 5.54% and 7.47% and 5.88%; (compound 10 µM) 4.28% and 5.96% and 5.46%. In addition, the IC50 (curve of compound) is 0.0464 µM and < 0.0316 µM and 0.0444 µM.

On to `COc1ccc([C@@H](O)c2cc(-c3ncnc4cc(N5CCOCC5)ccc34)c(F)cc2Cl)nn1`, for which the viability, T/C is 103% and 96.1% and 90.7% (compound 0.0316 µM); 90.9% and 95.3% and 105% (compound 0.1 µM); 106% and 104% and 100% (compound 0.316 µM); 80.6% and 84.1% and 83.6% (compound 1 µM); 84.3% and 82.3% and 64.7% (compound 3.16 µM); 53.4% and 67.6% and 39.1% (compound 10 µM). Moreover, the half-inhibitory concentration (IC50) (curve of compound) is > 10 µM and 6.03 µM.

Consider `C=CC(=O)N1CCN(c2nc(=O)n(-c3c(C)ccnc3C(C)C)c3nc(-c4c(O)cccc4F)c(F)cc23)C(C)C1` (stereo not given), for which the viability, T/C (compound 0.0316 µM) is 94.6% and 98.7% and 113%; the viability, T/C (compound 0.1 µM) was 87.2% and 97.6% and 96.2%; the viability, T/C (compound 0.316 µM) was 96% and 99.3% and 113%; the viability, T/C (compound 1 µM) was 84.4% and 93.2% and 89.2%; the viability, T/C (compound 3.16 µM) was 108% and 102% and 112%; the viability, T/C (compound 10 µM) is 98.3% and 81.2% and 102%. Moreover, for the setting “curve of compound”, the IC50 is over 10 µM.
